Results published in publication PMC4770092, “Subnanometre enzyme mechanics probed by single-molecule force spectroscopy” (Nature Communications, 2016).

Key:
[1] = target: T1, AdK 42-144 (Aquifex aeolicus, UniProt O66490, INS42C/INS144C); experiment: single-molecule optical tweezers, AP5A competition assay; type: binding; settings: 50 mM Tris pH 7.5, 200 mM KCl, about 10 pN load
T1 construct: full length, Cys inserted between 42/43 and 144/145; N-terminal spacer MAAKGELSG, C-terminal spacer and His6 kept; synthetic gene in pET11a, E. coli BL21(DE3); DNA handles on Cys in trap assay

[2] = target: T1, AdK 42-144; experiment: single-molecule optical tweezers, lid closing/opening; type: binding; settings: 50 mM Tris pH 7.5, 200 mM KCl; bisubstrate inhibitor

T1 sequence (O66490 other isoform, or with tags, fused parts or gaps INS42C/INS144C): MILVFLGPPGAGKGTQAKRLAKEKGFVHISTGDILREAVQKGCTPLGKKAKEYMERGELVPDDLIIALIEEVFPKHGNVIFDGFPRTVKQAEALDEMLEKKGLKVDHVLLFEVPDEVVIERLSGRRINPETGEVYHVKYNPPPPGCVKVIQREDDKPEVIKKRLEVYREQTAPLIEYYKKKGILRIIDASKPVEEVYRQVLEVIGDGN

SMILES	single-molecule optical tweezers, lid closing/opening [2]	also measured
Nc1ncnc2c1ncn2[C@@H]1O[C@H](COP(=O)(O)OP(=O)(O)O)[C@@H](O)[C@H]1O [ADP]	–	KD ([1]; Mg-ADP, AP5A competitor): nucleotides ADP (yellow), Mg-ADP (green) and Mg-ATP (blue)
Nc1ncnc2c1ncn2[C@@H]1O[C@H](COP(=O)(O)OP(=O)(O)OP(=O)(O)OP(=O)(O)OC[C@H]2O[C@@H](n3cnc4c(N)ncnc43)[C@H](O)[C@@H]2O)[C@@H](O)[C@H]1O [AP4A]	We found that AP4A induces full closing of AdK indistinguishable from AP5A	–
Nc1ncnc2c1ncn2[C@@H]1O[C@H](COP(=O)(O)OP(=O)(O)OP(=O)(O)OP(=O)(O)OP(=O)(O)OP(=O)(O)OC[C@H]2O[C@@H](n3cnc4c(N)ncnc43)[C@H](O)[C@@H]2O)[C@@H](O)[C@H]1O [AP6A]	AP6A binds with the same affinity as AP5A despite its significantly reduced closing distance	–
Nc1ncnc2c1ncn2[C@@H]1O[C@H](COP(=O)(O)OP(=O)(O)OP(=O)(O)O)[C@@H](O)[C@H]1O [ATP]	–	KD ([1]; Mg-ATP, 1 μM AP5A competitor): nucleotides ADP (yellow), Mg-ADP (green) and Mg-ATP (blue)
